Results taken from patent publication US20230250129A1, “NEUROACTIVE STEROIDS AND COMPOSITIONS THEREOF” (Sage Therapeutics, Inc., priority 2020, published 2023).

Each compound was assayed against [35S]-TBPS binding, rat brain cortical membranes (GABAA receptor) (assay: Steroid inhibition of [35S]-TBPS binding). Conditions: 3 nM [35S]-TBPS, in the presence of 5 mM GABA, 90 min at room temp.
Procedure: Steroid Inhibition of TBPS Binding
[^35S]-t-Butylbicyclophosphorothionate (TBPS) binding assays using rat brain cortical membranes in the presence of 5 mM GABA has been described (Gee et al, J. Pharmacol. Exp. Ther. 1987, 241, 346-353; Hawkinson et al, Mol. Pharmacol. 1994, 46, 977-985; Lewin, A. H et al., Mol. Pharmacol. 1989, 35, 189-194).
Briefly, cortices are rapidly removed following decapitation of carbon dioxide-anesthetized Sprague-Dawley rats (200-250 g). The cortices are homogenized in 10 volumes of ice-cold 0.32 M sucrose using a glass/teflon homogenizer and centrifuged at 1500×g for 10 min at 4° C. The resultant supernatants are centrifuged at 10,000×g for 20 min at 4° C. to obtain the P2 pellets. The P2 pellets are resuspended in 200 mM NaCl/50 mM Na—K phosphate pH 7.4 buffer and centrifuged at 10,000×g for 10 min at 4° C. This washing procedure is repeated twice and the pellets are resuspended in 10 volumes of buffer. Aliquots ([…]) of the membrane suspensions are incubated with 3 nM [^35S]-TBPS and […] aliquots of test drug dissolved in dimethyl sulfoxide (DMSO) (final 0.5%) in the presence of 5 mM GABA. The incubation is brought to a final volume of 1.0 mL with buffer. Nonspecific binding is determined in the presence of […] and ranged from 15 to 25%. Following a 90 min incubation at room temp, the assays are terminated by filtration through glass fiber filters (Schleicher and Schuell No. 32) using a cell harvester (Brandel) and rinsed three times with ice-cold buffer. Filter bound radioactivity is measured by liquid scintillation spectrometry. Non-linear curve fitting of the overall data for each drug averaged for each concentration is done using Prism (GraphPad). […] The concentration of test compound producing 50% inhibition (IC50) of specific binding and the maximal extent of inhibition (Imax) are determined for the individual experiments with the same model used for the overall data and then the means±SEM.s of the individual experiments are calculated.
Various compounds are or can be screened to determine their potential as modulators of [^35S]-TBPS binding in vitro. These assays are or can be performed in accordance with the above

Compound | IC50 [µM]
COC[C@@]1(O)CC[C@@]2(C)[C@H](CC[C@@H]3[C@@H]2CC[C@]2(C)[C@@H](C(=O)Nc4cnc(C#N)cn4)CC[C@@H]32)C1 [Compound 72, (3R,5R,8R,9S,10S,13S,14S,17S)—N-(5-cyanopyrazin-2-yl)-3-hydroxy-3-(methoxymethyl)-10,13-dimethylhexadecahydro-1H-cyclopenta[a]phenanthrene-17-carboxamide] | < 0.1
COC[C@@]1(O)CC[C@H]2[C@H](CC[C@@H]3[C@@H]2CC[C@]2(C)[C@@H](C(=O)Nc4ccc(C#N)cn4)CC[C@@H]32)C1 [Compound 71, (3R,5R,8R,9R,10S,13S,14S,17S)—N-(5-cyanopyridin-2-yl)-3-hydroxy-3-(methoxymethyl)-13-methylhexadecahydro-1H-cyclopenta[a]phenanthrene-17-carboxamide] | < 0.1
C[C@H]1C[C@H]2[C@H](CC[C@@H]3[C@@H]2CC[C@]2(C)[C@@H](C(=O)Nc4cnc(C#N)cn4)CC[C@@H]32)C[C@]1(C)O [Compound 88, (2S,3S,5R,8R,9R,10S,13S,14S,17S)—N-(5-cyanopyrazin-2-yl)-3-hydroxy-2,3,13-trimethylhexadecahydro-1H-cyclopenta[a]phenanthrene-17-carboxamide] | < 0.1
CCC[C@@]1(O)CC[C@H]2[C@H](CC[C@@H]3[C@@H]2CC[C@]2(C)[C@@H](C(=O)Nc4cnc(C#N)cn4)CC[C@@H]32)C1 [Compound 69, (3R,5R,8R,9R,10S,13S,14S,17S)—N-(5-cyanopyrazin-2-yl)-3-hydroxy-13-methyl-3-propylhexadecahydro-1H-cyclopenta[a]phenanthrene-17-carboxamide] | < 0.1
CCC[C@@]1(O)CC[C@H]2[C@H](CC[C@@H]3[C@@H]2CC[C@]2(C)[C@@H](C(=O)Nc4ncc(C#N)cn4)CC[C@@H]32)C1 [Compound 90, (3R,5R,8R,9R,10S,13S,14S,17S)—N-(5-cyanopyrimidin-2-yl)-3-hydroxy-13-methyl-3-propylhexadecahydro-1H-cyclopenta[a]phenanthrene-17-carboxamide] | < 0.1
CCC[C@@]1(O)CC[C@H]2[C@H](CC[C@@H]3[C@@H]2CC[C@]2(C)[C@@H](C(=O)Nc4ccc(F)cn4)CC[C@@H]32)C1 [Compound 81, (3R,5R,8R,9R,10S,13S,14S,17S)—N-(5-fluoropyridin-2-yl)-3-hydroxy-13-methyl-3-propylhexadecahydro-1H-cyclopenta[a]phenanthrene-17-carboxamide] | < 0.1
COC[C@@]1(O)CC[C@H]2[C@H](CC[C@@H]3[C@@H]2CC[C@]2(C)[C@@H](C(=O)Nc4cc(C#N)ncn4)CC[C@@H]32)C1 [Compound 94, (3R,5R,8R,9R,10S,13S,14S,17S)—N-(6-cyanopyrimidin-4-yl)-3-hydroxy-3-(methoxymethyl)-13-methylhexadecahydro-1H-cyclopenta[a]phenanthrene-17-carboxamide] | < 0.1
CCOC[C@@]1(O)CC[C@@]2(C)[C@H](CC[C@@H]3[C@@H]2CC[C@]2(C)[C@@H](C(=O)Nc4cnc(C#N)cn4)CC[C@@H]32)C1 [Compound 75, (3R,5R,8R,9S,10S,13S,14S,17S)—N-(5-cyanopyrazin-2-yl)-3-(ethoxymethyl)-3-hydroxy-10,13-dimethylhexadecahydro-1H-cyclopenta[a]phenanthrene-17-carboxamide] | < 0.1
CCC[C@@]1(O)CC[C@H]2[C@H](CC[C@@H]3[C@@H]2CC[C@]2(C)[C@@H](C(=O)Nc4cc(C#N)ncn4)CC[C@@H]32)C1 [Compound 84, (3R,5R,8R,9R,10S,13S,14S,17S)—N-(6-cyanopyrimidin-4-yl)-3-hydroxy-13-methyl-3-propylhexadecahydro-1H-cyclopenta[a]phenanthrene-17-carboxamide] | < 0.1
CCOC[C@@]1(O)CC[C@H]2[C@H](CC[C@@H]3[C@@H]2CC[C@]2(C)[C@@H](C(=O)Nc4nccc(C#N)n4)CC[C@@H]32)C1 [Compound 79, (3R,5R,8R,9R,10S,13S,14S,17S)—N-(4-cyanopyrimidin-2-yl)-3-(ethoxymethyl)-3-hydroxy-13-methylhexadecahydro-1H-cyclopenta[a]phenanthrene-17-carboxamide] | 0.1 to 1
CCOC[C@@]1(O)CC[C@H]2[C@H](CC[C@@H]3[C@@H]2CC[C@]2(C)[C@@H](C(=O)Nc4ncc(C#N)cn4)CC[C@@H]32)C1 [Compound 82, (3R,5R,8R,9R,10S,13S,14S,17S)—N-(5-cyanopyrimidin-2-yl)-3-(ethoxymethyl)-3-hydroxy-13-methylhexadecahydro-1H-cyclopenta[a]phenanthrene-17-carboxamide] | 0.1 to 1
COC[C@@]1(O)CC[C@H]2[C@H](CC[C@@H]3[C@@H]2CC[C@]2(C)[C@@H](C(=O)Nc4cncc(C#N)n4)CC[C@@H]32)C1 [Compound 95, (3R,5R,8R,9R,10S,13S,14S,17S)—N-(6-cyanopyrazin-2-yl)-3-hydroxy-3-(methoxymethyl)-13-methylhexadecahydro-1H-cyclopenta[a]phenanthrene-17-carboxamide] | < 0.1
CCC[C@@]1(O)CC[C@@]2(C)[C@H](CC[C@@H]3[C@@H]2CC[C@]2(C)[C@@H](C(=O)Nc4cnc(C#N)cn4)CC[C@@H]32)C1 [Compound 74, (3R,5R,8R,9S,10S,13S,14S,17S)—N-(5-cyanopyrazin-2-yl)-3-hydroxy-10,13-dimethyl-3-propylhexadecahydro-1H-cyclopenta[a]phenanthrene-17-carboxamide] | < 0.1
COC[C@@]1(O)CC[C@@]2(C)[C@H](CC[C@@H]3[C@@H]2CC[C@]2(C)[C@@H](C(=O)Nc4ccc(C#N)cn4)CC[C@@H]32)C1 [Compound 70, (3R,5R,8R,9S,10S,13S,14S,17S)—N-(5-cyanopyridin-2-yl)-3-hydroxy-3-(methoxymethyl)-10,13-dimethylhexadecahydro-1H-cyclopenta[a]phenanthrene-17-carboxamide] | < 0.1
CCC[C@@]1(O)CC[C@H]2[C@H](CC[C@@H]3[C@@H]2CC[C@]2(C)[C@@H](C(=O)Nc4ccnc(C#N)n4)CC[C@@H]32)C1 [Compound 87, (3R,5R,8R,9R,10S,13S,14S,17S)—N-(2-cyanopyrimidin-4-yl)-3-hydroxy-13-methyl-3-propylhexadecahydro-1H-cyclopenta[a]phenanthrene-17-carboxamide] | < 0.1
C[C@@]1(O)CC[C@H]2[C@H](CC[C@@H]3[C@@H]2CC[C@]2(C)[C@@H](C(=O)Nc4ccccc4)CCC[C@@H]32)C1 [Compound 98, (1S,4aS,4bR,6aR,8R,10aS,10bR,12aS)-8-hydroxy-8,12a-dimethyl-N-phenyloctadecahydrochrysene-1-carboxamide] | < 0.1
CC[C@]12CC[C@@](C)(O)C[C@H]1CC[C@H]1[C@@H]3CCC[C@H](C(=O)Nc4ccccc4)[C@@]3(C)CC[C@@H]12 [Compound 99, (1S,4aS,4bS,6aR,8R,10aS,10bS,12aS)-10a-ethyl-8-hydroxy-8,12a-dimethyl-N-phenyloctadecahydrochrysene-1-carboxamide] | < 0.1
CCOC[C@@]1(O)CC[C@H]2[C@H](CC[C@@H]3[C@@H]2CC[C@]2(C)[C@@H](C(=O)Nc4cnc(C#N)nc4)CC[C@@H]32)C1 [Compound 76, (3R,5R,8R,9R,10S,13S,14S,17S)—N-(2-cyanopyrimidin-5-yl)-3-(ethoxymethyl)-3-hydroxy-13-methylhexadecahydro-1H-cyclopenta[a]phenanthrene-17-carboxamide] | < 0.1
CCC[C@@]1(O)CC[C@H]2[C@H](CC[C@@H]3[C@@H]2CC[C@]2(C)[C@@H](C(=O)Nc4nccc(C#N)n4)CC[C@@H]32)C1 [Compound 93, (3R,5R,8R,9R,10S,13S,14S,17S)—N-(4-cyanopyrimidin-2-yl)-3-hydroxy-13-methyl-3-propylhexadecahydro-1H-cyclopenta[a]phenanthrene-17-carboxamide] | < 0.1
COC[C@@]1(O)CC[C@H]2[C@H](CC[C@@H]3[C@@H]2CC[C@]2(C)[C@@H](C(=O)Nc4ccnc(C#N)n4)CC[C@@H]32)C1 [Compound 91, (3R,5R,8R,9R,10S,13S,14S,17S)—N-(2-cyanopyrimidin-4-yl)-3-hydroxy-3-(methoxymethyl)-13-methylhexadecahydro-1H-cyclopenta[a]phenanthrene-17-carboxamide] | < 0.1
